# Test results: patent publication US9849174B2, “Methods and compositions related to immunogenic fibrils” (The Board of Regents of the University of Texas System, priority 2009, dated 2017)
# Entries after “also recorded” stand apart in the source; their conditions may differ. Square brackets hold non-standard residues; d marks the D form. Ends that are not written are not given here.
# Assays:
# CFSE-labeled OT-II cells = assay: Footpad adoptive transfer of CFSE-labeled OT-II cells one week after immunization; assay type: in vivo, mice; settings: cells transferred a week after footpad immunization, lymph nodes 24 h later
# Description: OVA-KFE8D Nanofibers Prolong Antigen Presentation at the Immunization Site. Previous studies from our lab have shown that peptide nanofiber vaccines (all L-amino acids) are cleared from the immunization site as early as 10 days after vaccination compared to depot forming adjuvants (Chesson, et al., 2014). To investigate whether the reduced proteolytic susceptibility of D-amino acid peptides prolongs antigen-presentation at the immunization site, we used adoptive transfer experiments where mice were injected at the immunization site with CFSElabeled OT-II cells (OVA-specific CD4+ T cells) and measured proliferation of the OT-II cells (in response to existing antigen) via the dilution of the CFSE label using flow cytometry. For these studies, immunizations and adoptive transfers were done in the footpads to maximize antigen depot-OT-II CD4+ T cell interaction and easy collection of draining lymph nodes. Mice were immunized with OVA-KFE8L or OVA-KFE8D nanofibers and a week later CFSE-labeled OT-II cells were transferred at the vaccination site. Twenty-four hours later, mice were sacrificed and draining lymph nodes were extracted.
# C57BL/6 mice [1] = assay: Subcutaneous immunization with OVA-KFE8 enantiomers, antibody responses by ELISA (Example 4); assay type: in vivo; settings: for Dominant antibody isotype: plates coated with free OVA peptide; for Total IgG antibody response: s.c., boost day 28
# OT-II cells = assay: In vitro activation assay of OT-II lymphocytes on nanofiber-coated wells, cytokines by flow cytometry; assay type: cell-based, mice; settings: 6 h stimulation; for Cytokine (IFN-γ, IL-2) production by OT-II cells: nanofibers without OVA
# Description: OVA-KFE8D Nanofibers Induce Robust CD4 T Helper Cell Responses. OVA (ISQAVHAAHAEINEAGR) (SEQ ID NO: 26), is a well-characterized CD4+ T helper epitope, a portion of which is also recognized by B cells (ISQAVHAAHA) (SEQ ID NO: 58) (Robertson, et al., 2000). Therefore, immunization with OVA leads to both CD4+ T cell activation and antibody production and studies have shown that antibody responses against OVA are CD4+ T celldependent (Rudra, et al., 2012; Robertson, et al., 2000). To assess whether the enantiomeric nature of nanofibers that contributed to enhanced antibody responses also leads to differential CD4+ T helper cell functionality, we utilized transgenic mice (OT-II mice) that have CD4+ T cells (OT-II cells) whose receptors recognize OVA in the context of MHC-class II molecules.30 CD4+ T cell responses were assessed using an in vitro activation assay. Whole lymphocyte extracts (containing antigen-presenting cell, B cell, and CD4+ T cell populations) from OT-II mice were cultured in wells coated with OVA-bearing enantiomers, and 6 h later the production of cytokines IFN-γ and IL-2 were measured using flow cytometry. Lymphocytes stimulated with PBS or free OVA peptide were used as negative and positive controls, respectively.
# C57BL/6 mice [2] = assay: Long-term serum antibody ELISA after immunization with Q11-linked peptides (Example 2); settings: boost at wk 4
# Description: The dose dependence and longevity of the antibody response to OVA-Q11 was further investigated and antibody responses against the malarial peptide epitope (NANP)3 coupled to Q11 were also characterized. Mice were immunized with two different doses of OVA-Q11 (100 nmol and 50 nmol), or 100 nmol of (NANP)3-Q11 and boosted with half the dose at wk 4. Mice were bled on a weekly basis up to wk 6, once at wk 8, and once every four weeks thereafter.
# Animals and Immunizations Peptides were dissolved in sterile water (8 mM stock), incubated overnight at 4° C., and diluted in sterile PBS (2 mM working concentration) prior to immunizations. For the malaria peptide, (NANP)3-Q11, the formulations were incubated in PBS overnight to ensure complete fibril formation. […] Female C57BL/6 mice (6-8 weeks old, Taconic Farms, IN) were immunized subcutaneously with two 50 μL injections in the back, with each injection containing 100 nmol of peptide. […]
# Determination of Antibody Production ELISA plates (eBioscience) were coated with 20 μg/mL of peptide or 0.5 μg/mL of whole protein in PBS overnight at 4° C. […] The reaction was stopped using 50 μL of 1 M phosphoric acid and 100 μL of the solution was transferred to fresh plates and absorbance values were read at 450 nm. Absorbance values of PBS (no antigen) coated wells were subtracted to account for background. […]
# [3] = test system: KO mice lacking both the αβ and γδ receptors; assay: Immunization of T cell receptor KO mice, antibody production; assay type: in vivo; settings: over 6 wks
# Description: To confirm the necessity of T cells, KO mice lacking both the αβ and γδ receptors for CD4^+ T cells were immunized with OVA-Q11 along with wild type controls. […] The wild type control mice responded as expected. […] To ensure that the KO mice are capable of eliciting immune responses, they were immunized with a T-independent antigen, NP-Ficoll. […] This finding might not be surprising because OVA is a strong MHC class II peptide, containing both B and T cell determinants.
# C57BL/6 mice [4] = assay: Subcutaneous immunization of mice, serum antibody titers and isotypes by ELISA (Example 1); assay type: in vivo
# Description: To investigate how fibrillization affected the immunogenicity of OVA, C57BL/6 mice were immunized subcutaneously with the different peptides and boosted with additional peptide at 28 days (see methods). Serum was collected seven days after the boost, and levels of various immunoglobulins were measured.
# Immunizations. […] Stock solutions were then diluted in sterile, endotoxin-free PBS to working concentrations. […] CFA-adjuvanted groups received the same volume and total peptide dose, prepared by emulsifying peptide/PBS solutions 1:1 in CFA. […] CFA groups were boosted in incomplete Freund's adjuvant (IFA). Mice receiving mixtures of Q11 and OVA received 100 nmol of each peptide in the first injection and 50 nmol of each in the second. Seven days after the boost, the mice were sacrificed, and sera and spleens were harvested.
# Determination of antibody titers. High-binding ELISA plates (eBioscience) were coated with either 20 μg/mL peptide in PBS or PBS alone (for uncoated background subtraction) overnight at 4° C. […] To determine titers for each antiserum, background absorbance values from uncoated wells were subtracted from coated wells, and net absorbances were compared to cutoff values. The cutoff consisted of the mean plus three times the standard deviation of the negative control group (mice receiving OVA without adjuvant) for each corresponding dilution. Any sample dilutions having absorbances above this cutoff value were considered positive readings. The titer was considered as the highest dilution for which it and all lower dilutions had positive readings. If no positive dilutions were present the titer was considered to be 10^2. […] Antibody isotypes were analyzed similarly using a mouse monoclonal antibody kit containing goat anti-mouse IgG1, IgG2a, IgG2b, IgG3, and IgM (Sigma).
# [5] = ranges: high and low values among three batches for each peptide
# Description: Endotoxin levels of all formulations were tested using a Limulus Amebocyte Lystae (LAL) chromogenic end point assay (Lonza, USA).
# To account for batch-to-batch variability three different sets of peptides were synthesized for immunizing mice.
# [6] = parameters: species or system mice; settings: mouse, in vivo
# Description: Peptide assemblies (stained brown and indicated by arrows) were found at the cortex of the lymph nodes by wk 1 and continued to persist up to wk 6. […] Although the mechanism of trafficking is unknown, co-staining for macrophages, dendritic cells, or B cells might provide further insights into the uptake and processing of these peptides in vivo.
# Immunohistochemistry Freshly dissected skeletal muscle and inguinal lymph nodes were fixed overnight with 4% formaldehyde in phosphate-buffered saline (pH 7.2) and the tissue was processed and embedded in paraffin at the Human Tissue Resource Center (University of Chicago). The paraffin blocks were cut on a microtome (Leica, USA) into 4 μm thick sections and were deparaffinized with xylene and rehydrated with gradient ethanol. The sections were boiled in 10 mM sodium citrate solution (pH 6.0) for 10 min to retrieve the antigens and blocked with 5% BSA in PBS for 1 hr. The sections were then incubated with Horseradish Peroxidase Avidin D (Vector Laboratories, CA) for 3 hrs, and the biotin was visualized using a peroxidase substrate diaminobenzidine kit (Vector Laboratories, CA). The sections were also counterstained with Mayer's hematoxylin solution (Sigma-Aldrich, USA) for 10 mins. The slides were dehydrated with gradient ethanol and xylene and mounted with Permount Mounting Medium (Fisher Scientific, PA). Images were acquired using a Zeiss Axioskop at the Microscopy Core Facility (University of Chicago).
# [7] = test system: antigen-specific T cells in the draining lymph nodes; assay: CD8 T cell responses after footpad immunization, tetramer staining of draining lymph nodes; assay type: in vivo, mice
compound,measurement,setting,value
H2N-ISQAVHAAHAEINEAGRSGSGFKFEFKFE-Am (H-ISQAVHAAHAEINEAGRSGSGFKFEFKFE-NH2; not fully specified (some residues)) [OVA-KFE8(L)],Transferred OT-II cells that had proliferated (shift in CFSE intensity),CFSE-labeled OT-II cells,only background levels of proliferation
same,Dominant antibody isotype,C57BL/6 mice [1],IgG1
same,IFN-γ production by OT-II cells compared to wells coated with PBS or bare nanofibers,OT-II cells,significantly higher levels
same,IL-2 production by OT-II cells compared to wells coated with PBS or bare nanofibers,OT-II cells,significantly higher levels
H2N-ISQAVHAAHAEINEAGRSGSG^DF^DK^DF^DE^DF^DK^DF^DE-Am (H-ISQAVHAAHAEINEAGRSGSG[dF][dK][dF][dE][dF][dK][dF][dE]-NH2; SMILES CC[C@H](C)[C@H](N)C(=O)N[C@@H](CO)C(=O)N[C@@H](CCC(N)=O)C(=O)N[C@@H](C)C(=O)N[C@H](C(=O)N[C@@H](Cc1c[nH]cn1)C(=O)N[C@@H](C)C(=O)N[C@@H](C)C(=O)N[C@@H](Cc1c[nH]cn1)C(=O)N[C@@H](C)C(=O)N[C@@H](CCC(=O)O)C(=O)N[C@H](C(=O)N[C@@H](CC(N)=O)C(=O)N[C@@H](CCC(=O)O)C(=O)N[C@@H](C)C(=O)NCC(=O)N[C@@H](CCCNC(=N)N)C(=O)N[C@@H](CO)C(=O)NCC(=O)N[C@@H](CO)C(=O)NCC(=O)N[C@H](Cc1ccccc1)C(=O)N[C@H](CCCCN)C(=O)N[C@H](Cc1ccccc1)C(=O)N[C@H](CCC(=O)O)C(=O)N[C@H](Cc1ccccc1)C(=O)N[C@H](CCCCN)C(=O)N[C@H](Cc1ccccc1)C(=O)N[C@H](CCC(=O)O)C(N)=O)[C@@H](C)CC)C(C)C) [OVA-KFE8(D)],Antibody isotype levels compared to OVA-KFE8(L),"C57BL/6 mice [1]; IgG2a, IgG2b, IgG3, IgM, IgA",Significantly higher levels of all antibody isotypes
same,Anti-OVA antibodies on plates coated with free OVA peptide compared to OVA-KFE8(L),"C57BL/6 mice [1]; mouse, in vivo",higher levels of anti-OVA antibodies; also recorded: Significantly higher levels of antibodies
same,"IgG2a, IgM, and IgA production compared to OVA in ISA-720","C57BL/6 mice [1]; mouse, in vivo",significantly higher
same,"OVA-specific antibodies compared to OVA-KFE8(L), SGSG-KFE8 control wells subtracted","C57BL/6 mice [1]; mouse, in vivo",significantly higher levels of OVA-specific antibodies
same,Dominant antibody isotype,C57BL/6 mice [1],IgG1
same,Total IgG antibody response,C57BL/6 mice [1],robust antibody responses
same,Antibody levels compared to OVA-KFE8(L) nanofibers or OVA in ISA-720,C57BL/6 mice [1]; series of serum dilutions,Significantly higher levels of total IgG
same,Antibody levels pre-boost compared to OVA-KFE8(L),C57BL/6 mice [1]; week 2 up to the boost at week 4,significantly higher levels of antibodies
same,Difference in IFN-γ and IL-2 production / CD4+ T cell activation between the enantiomers,OT-II cells,no significant differences
same,IFN-γ production by OT-II cells compared to wells coated with PBS or bare nanofibers,OT-II cells,significantly higher levels
same,IL-2 production by OT-II cells compared to wells coated with PBS or bare nanofibers,OT-II cells,significantly higher levels
NANPNANPNANPSGSGQQKFQFQFEQQ [(NANP)3-Q11],Spike in antibody levels after the boost,C57BL/6 mice [2]; 100 nmol,no spike in antibody levels
same,Time for which antibodies were detectable,C57BL/6 mice [2],up to 28 wks
same,Antibody production in T cell receptor KO mice,[3],no antibody production
"H-ISQAVHAAHAEINEAGR-OH [OVA, H2N-ISQAVHAAHAEINEAGR-OH, reference compound]",Total IgG response,"C57BL/6 mice [4]; peptide in PBS without added adjuvant, s.c., boost day 28, serum 7 days after boost",did not raise detectable IgG; also recorded: did not elicit a response
same,IgG titer,"C57BL/6 mice [4]; without adjuvant, baseline level of detection",10^2
same,Total IgG antibody response,C57BL/6 mice [1],did not raise any detectable IgG
"CC(=O)N[C@@H](Cc1ccccc1)C(=O)N[C@@H](CCCCN)C(=O)N[C@@H](Cc1ccccc1)C(=O)N[C@@H](CCC(=O)O)C(=O)N[C@@H](Cc1ccccc1)C(=O)N[C@@H](CCCCN)C(=O)N[C@@H](Cc1ccccc1)C(=O)N[C@@H](CCC(=O)O)C(N)=O [KFE8(L), Ac-FKFEFKFE-Am]","Cytokine (IFN-γ, IL-2) production by OT-II cells",OT-II cells,no cytokine production
ISQAVHAAHAEINEAGRSGSGQQKFQFQFEQQ-NH2 (C-terminus assumed) [O-Q11],Endotoxin,[5],0.08-0.28 EU/mL
same,Localization of peptide assemblies,[6],localized to the draining lymph nodes
same,Persistence of peptide assemblies in lymph nodes,[6],≤ 6 wk
same,Time at which peptide assemblies were found at the cortex of the lymph nodes,[6],≤ 1 wk
H2N-FKFEFKFEGGAAYSIINFEKL-Am (H-FKFEFKFEGGAAYSIINFEKL-NH2; not fully specified (some residues)) [SIN-KFE8(L)],"Memory CD8 T cell response: antigen-specific T cells in lymph nodes, compared with the enantiomer","[7]; boost day 28, evaluated day 32",significantly higher numbers of antigen-specific T cells
same,Effector and memory CD8+ T cell responses / tetramer+ CD8 T cells,"[7]; mouse, in vivo",robust effector and memory CD8+ T cell responses; also recorded: higher numbers of tetramer+CD8 T cells
H2N-^DF^DK^DF^DE^DF^DK^DF^DEGGAAYSIINFEKL-Am [SIN-KFE8(D)],"Effector CD8 T cell response: antigen-specific T cells in draining lymph nodes, compared with the enantiomer","[7]; footpad, boost day 5, evaluated day 8",significantly lower numbers of antigen-specific T cells
"CC(=O)N[C@H](Cc1ccccc1)C(=O)N[C@H](CCCCN)C(=O)N[C@H](Cc1ccccc1)C(=O)N[C@H](CCC(=O)O)C(=O)N[C@H](Cc1ccccc1)C(=O)N[C@H](CCCCN)C(=O)N[C@H](Cc1ccccc1)C(=O)N[C@H](CCC(=O)O)C(N)=O [KFE8(D), Ac-^DF^DK^DF^DE^DF^DK^DF^DE-Am]","Cytokine (IFN-γ, IL-2) production by OT-II cells",OT-II cells,no cytokine production
